Assay results from US11014934B2, “Antiseptic drug” (AO “TATKHIMFARMPREPARATY”, priority 2017, dated 2021).
Like-named read-outs stand apart in the source and are kept apart here.

Assays:
E. coli CDC F-50 = test: Antiseptic activity on rat skin; assay type: in vivo; conditions: E. coli CDC F-50 on rat skin; antiseptic concentration 0.2%; exposure time 5 min; n = 6
Protocol: The study of the antiseptic activity of compound I in rats […] was carried out in accordance with [R 4.2.2643-10 Metody laboratornykh issledovaniy i ispytaniy mediko-profilakticheskikh dezinfektsionnykh sredstv dlya otsenki ikh effektivnosti i bezopasnosti: Rukovodstvo.—M: Federal'nyy tsentr gigiyeny i epidemiologii Rospotrebnadzora, 2010.—S. 615. R 4.2.2643-10 Laboratory methods for the study and testing of medical prophylactic disinfectants to assess their effectiveness and safety: Guide.—M.:: Federal Center for Hygiene and Epidemiology of Rospotrebnadzor, 2010.—P. 615]. Experiments were carried out on male Wistar rats with a body weight of 180-250 g.
A culture of E. coli CDC F-50, grown on dense nutrient medium for (18-20) hours, was washed with sterile isotonic chloride solution, centrifuged at 5000 rpm for 5 minutes, the supernatant was drained and cells were resuspended with sterile isotonic sodium chloride solution.
The bacterial suspension of microorganisms was brought to a turbidity of […] according to McFarland, which corresponds to a concentration of 1.5×10^7 cells/ml.
Animals were formed in 5 groups of 6 animals each. All manipulations with animals were performed under isoflurane anesthesia (4%—induction of anesthesia (2 min, 1 l/min), 2%—basis narcosis). A portion of 5×5 cm was shaved with a hair clipper on the dorsal part of the body of the animal.
A 0.25 ml microbial suspension containing 1×10^7 CFU of E. coli CDC F-50 was applied to the shaved portion of the rat back with a dispenser and distributed with a sterile disposable spatula over the entire square area. It was left for 2-3 minutes until dry.
Then, a gauze cloth (5×5 cm) was applied to the skin of rats for 5 minutes. In the experimental group, the tissue was pre-wetted with 1 ml of 0.2% solution of compound I, and in the positive control groups, the tissue was dipped in 1 ml of 0.2% miramistin, benzalkonium chloride and chlorhexidine. In the negative control group, the cloth was immersed in 1 ml of sterile saline. […]
After the time required for the cultivation of microorganisms of this species, the results were counted according to the number of colonies grown on the Petri dish. […] After counting the number of colonies grown on Petri dishes, the density of contamination per 1 cm^2 of the surface and the percentage of disinfection were calculated, taking the number of colonies removed from control surfaces and not exposed to antiseptics action as 100%. The percentage of growth inhibition of E. coli CDC F-50 was calculated by the formula: […]

E. faecium 29 = test: MIC, serial dilutions in Müller-Hinton broth; assay type: cell-based
Protocol: (§1) A comparative assessment of the spectrum of antibacterial action was carried out on archival and clinical strains of gram-positive and gram-negative microorganisms in accordance with the [Opredeleniye chuvstvitel'nosti mikroorganizmov k antibakterial'nym preparatam (Metodicheskiye ukazaniya MUK 4.2.1890-04). Utverzhdeny i vvedeny v deystviye Glavnym gosudarstvennym sanitarnym vrachom Rossiyskoy Federatsii G. G. Onishchenko 04.03.2004 g. Determination of the sensitivity of microorganisms to antibacterial drugs (Guidelines MUK 4.2.1890-04). Approved and put into effect by the Chief State Sanitary Doctor of the Russian Federation G. G. Onishchenko on 4 Mar. 2004].
(§2) The value of the minimum inhibitory concentration (MIC) was determined by the method of serial dilutions on Müller-Hinton broth using 96-well sterile plates. Two-fold dilutions of the test substances in a nutrient medium were prepared. The final concentrations were 1-128 ug/ml. The growth of cultures was assessed visually, comparing the growth of microorganisms in the presence of test compounds with the growth of culture without them. […] The first lowest concentration of the studied substance (from a series of consecutive dilutions), where bacterial growth is not visually determined, is considered to be the minimum inhibitory concentration (MIC). MIC was determined by the method of serial dilutions in broth with increment=2, so the differences of neighboring dilutions are not considered to be significant. In each experience there is a positive (broth with growing culture) and a negative (broth without growing culture) control.
(§3) To determine the MIC, 10 μl of culture medium was taken from those wells in which growth was not observed, and inoculation was performed on a dense Müller-Hinton broth. For the preparation of the inoculum, a pure, daily culture of gram-positive and gram-negative microorganisms grown on a dense nutrient medium was used. Nutrient medium is Müller-Hinton broth, which was prepared from dry media (Müller-Hinton broth, Acumedia, Baltimore), cultivation was carried out on agarized Müller-Hinton broth, including an additional 2% agar. The media were autoclaved at 121° C. for 15 minutes. In a sterile isotonic solution of sodium chloride, a suspension of microorganisms was prepared, adjusting the inoculum density to 0.5 according to the McFarland standard (1.5·10^8 CFU/ml). Then, the resulting inoculum was diluted to a concentration of 10^7 CFU/ml with Müller-Hinton broth. The inoculum was used within 15 minutes after preparation; the purity of the bacterial strains was monitored before each experiment.
(§4) 100 μl of Müller-Hinton broth was added to the wells of each plate; The tested substance was introduced into the first well at a concentration of 128 μg/ml in a volume of 100 μl and its concentration was adjusted to 0.5 μg/ml by consecutive two-fold dilution. Then, the prepared inoculum (100 μI) was added to each well, thereby diluting twice the concentration of the studied compounds. […] In addition, the purity of nutrient media and solvents was monitored. The plates were incubated in a thermostat at 37° C. for 24 hours. The growth of cultures was assessed visually, comparing the growth of microorganisms in the presence of test compounds with the growth of culture without them.
(§5) For the MIC was taken the minimum concentration of the studied compounds, providing complete suppression of the visible growth of the studied strains of microorganisms. The maximum value obtained in three independent experiments was taken as the MIC of the compound.

Ps. aeruginosa 1202 = test: MIC, serial dilutions in Müller-Hinton broth; assay type: cell-based
Protocol: as §1, §2, §3, §4, §5

E. faecium 3030 = test: MIC, serial dilutions in Müller-Hinton broth; assay type: cell-based
Protocol: as §1, §2, §3, §4, §5

E. coli MG 1655 = test: MIC, serial dilutions in Müller-Hinton broth; assay type: cell-based
Protocol: as §1, §2, §3, §4, §5

alkyldimethyl(phenylmethyl) ammonium chloride [Benzalconium chloride]
Growth inhibition rate (M ± SD) (E. coli CDC F-50): 96.8 ± 2.0% | MIC (E. faecium 29; E. faecium 29, inoculum 10^7 CFU/ml): <0.5 µg/mL | MIC (Ps. aeruginosa 1202; Ps. aeruginosa 1202, inoculum 10^7 CFU/ml): >64 µg/mL | MIC (E. faecium 3030; E. faecium 3030, inoculum 10^7 CFU/ml): 0.5 µg/mL | MIC (E. coli MG 1655; E. coli MG 1655, inoculum 10^7 CFU/ml): 2 µg/mL

CCCCCCCCCCCC[N+](C)(C)Cc1cnc(C[N+](C)(C)CCCCCCCCCCCC)c2c1COC(CC)O2 (stereo not drawn) [Compound I, 5,8-(Bis(methylene (N, N-dimethyl-N-dodecylammonium))-2-ethyl-4H-[1,3]dioxino [4,5-c]pyridiniumdichloride]
Growth inhibition rate (M ± SD) (E. coli CDC F-50): 97.5 ± 1.7% | MIC (E. faecium 29; Enterococcus faecium, E. faecium 29, inoculum 10^7 CFU/ml, read-out: MIC): 0.03 µg/mL | MIC (Ps. aeruginosa 1202; Pseudomonas aeruginosa, Ps. aeruginosa 1202, inoculum 10^7 CFU/ml, read-out: MIC): 32 µg/mL | MIC (E. faecium 3030; Enterococcus faecium, E. faecium 3030, inoculum 10^7 CFU/ml, read-out: MIC): 1 µg/mL | MIC (E. coli MG 1655; Escherichia coli, MG1655, E. coli MG 1655, inoculum 10^7 CFU/ml, read-out: MIC): 2 µg/mL

CCCCCCCCCCCCCC(=O)NCCC[N+](C)(C)Cc1ccccc1.O.[Cl-] [Miramistin, benzyldimethyl [3-(myristoylamino)propyl]-ammonium chloride monohydrate]
Growth inhibition rate (M ± SD) (E. coli CDC F-50): 97.2 ± 1.8% | MIC (E. faecium 29; Enterococcus faecium, 29): 8 µg/mL | MIC (Ps. aeruginosa 1202; Pseudomonas aeruginosa, 1202): > 64 µg/mL | MIC (E. faecium 3030; Enterococcus faecium, 3030): 0.5 µg/mL | MIC (E. coli MG 1655; Escherichia coli, MG1655): 8 µg/mL
